# In PubChem BioAssay AID2060623 (Molecular Pharmacology Branch, DTP, NCI, 2025):
# pIC50: −log10 of the molar value.
# Test system: 227483-062-R1-J1-PDC complex spheroids with HUVEC/MSC, viability
# Assay: Anticancer human tumor 227483-062-R1-J1-PDC patient-derived pancreatic carcinoma cell line growth inhibition [CLK]
# Details: for pIC50: curve of first compound; for viability, T/C: stronger effect = lower value
# Excerpt: A high-throughput screen of multi-cell type tumor spheroids was designed to identify active combinations of […] and targeted small molecules. Complex spheroids include a stromal component modeled by human endothelial cells (HUVEC) and fibroblasts modeled by human mesenchymal stem cells (MSCs). The concentration ranges selected for each drug and investigational agent were based upon clinically achievable concentrations if the clinical Cmax of the agent was known.
# Compounds. The drugs and investigational agents: cirtuvivint (SM08502; NSC835563), CC-671 (NSC850746), vemurafenib (NSC761431), tapotoclax (NSC804041), sotorasib (NSC818433), adagrasib (NSC831453), MRTX-1133 (NSC836407), BAY2416964 (NSC825713), copanlisib (NSC816437), inavolisib (NSC800729), abemaciclib (NSC768073), osimertinib (NSC779217), entinostat (NSC756642), eltanexor (KPT-8602, NSC794443), venetoclax (NSC766270), ceralasertib (NSC777638), bortezomib (NSC756655), olaparib (NSC753686), talazoparib (NSC767125), alisertib (NSC759677), peposertib (NSC802822), gemcitabine (NSC613327), 5-fluorouracil (NSC19893), SN-38 (NSC673596), oxaliplatin (NSC266046), paclitaxel (NSC125973), and doxorubicin (NSC123127), were obtained from the National Cancer Institute (NCI) Developmental Therapeutics Program Chemical Repository. The FDA-approved anticancer drug set is available from the Developmental Therapeutics Program at https://dtp.cancer.gov/organization/dscb/obtaining/available plates.htm. […] The stock solutions were prepared in dimethyl sulfoxide (DMSO, Sigma-Aldrich, St. Louis, MO, cat. D2650), except for the platinum complexes which were prepared in saline (Quality Biological, Gaithersburg, MD, cat. 114-055-101), at 800-fold the tested concentration and stored at -70 degrees C prior to their use. All drugs and investigational agents were tested over a range starting from a high concentration at or near the clinical Cmax and decreasing in half-log increments. If the clinical Cmax for an agent had not been determined, the highest concentration tested was 10 microM.
# Cell Culture. All cells were maintained in an incubator at 37 degrees C and 5% CO2 with 95% humidity. The PDC lines were cultured according to standard operating procedures established by the NCI PDMR. Briefly, all PDCs were thawed and cultured in Matrigel-coated flasks prepared with a working solution of 1X Ham's F-12 nutrient mix, without supplementation (Invitrogen, Waltham, MA, cat. 11765054), 100 U/mL penicillin-streptomycin (Invitrogen, cat. 15140122), and 2.5% Matrigel (Corning Inc., Corning, NY, cat. 354248) for the first three passages. The 947758-054-R-J2-PDC line was cultured in 6B/Colon 1A media, which includes advanced DMEM/F-12 (Thermo Fisher Scientific, cat. 12634028), 10 mM HEPES (Thermo Fisher Scientific, cat. 15630080), 1X GlutaMAX supplement (Thermo Fisher Scientific, cat. 35050061), 0.1 mg/mL primocin (InvivoGen, cat. ant-pm-2), 10% defined fetal bovine serum, heat inactivated (HyClone Laboratories Inc., cat. SH30070.03HI), 1.25 mM N-Acetyl-L-cysteine (Sigma-Aldrich, cat. A9165), 10 mM nicotinamide (Sigma-Aldrich, cat. N0636), 1X B-27 supplement (Thermo Fisher Scientific, cat. 17504044), 1X N-2 supplement (Thermo Fisher Scientific, cat. 17502048), and 10 microM Y-27632 dihydrochloride (Tocris Bioscience, cat. 1254). The 876862-298-R-J1-PDC was cultured in 6E media, which includes all 6B/Colon 1A media components plus 50% L-WRN conditioned media (ATCC, cat. CRL-3276), 50 ng/mL recombinant human EGF recombinant protein (hEGF; Thermo Fisher Scientific, cat. PHG0311), 10 ng/mL recombinant human fibroblast growth factor 10 (hGFG-10; PeproTech, cat. 100-26), 1 ng/mL recombinant human fibroblast growth factor 2 (hFGF-2; PeproTech, cat. 100-18B), and 1 µM prostaglandin E2 (PGE2; Tocris, cat. 2296). The 227483-062-R1-J1-PDC line was cultured in Panc media, containing all 6E components except hFGF-2, with the addition of 500 nM SB-431542 (Selleckchem, cat. S1067) and 10 nM gastrin (Tocris, cat. 3006). […]
# [1] = second compound 0.0316 µM, first compound 0.0316 µM
# [2] = second compound 0.0316 µM, first compound 0.1 µM
# [3] = second compound 0.0316 µM, first compound 0.316 µM
# [4] = second compound 0.0316 µM, first compound 1 µM
# [5] = second compound 0.1 µM, first compound 0.0316 µM
# [6] = second compound 0.1 µM, first compound 0.1 µM
# [7] = second compound 0.1 µM, first compound 0.316 µM
# [8] = second compound 0.1 µM, first compound 1 µM
# [9] = second compound 0.316 µM, first compound 0.0316 µM
# [10] = second compound 0.316 µM, first compound 0.1 µM
# [11] = second compound 0.316 µM, first compound 0.316 µM
# [12] = second compound 0.316 µM, first compound 1 µM
# [13] = second compound 1 µM, first compound 0.0316 µM
# [14] = second compound 1 µM, first compound 0.1 µM
# [15] = second compound 1 µM, first compound 0.316 µM
# [16] = second compound 1 µM, first compound 1 µM
# [17] = second compound 3.16 µM, first compound 0.0316 µM
# [18] = second compound 3.16 µM, first compound 0.1 µM
# [19] = second compound 3.16 µM, first compound 0.316 µM
# [20] = second compound 3.16 µM, first compound 1 µM
# [21] = second compound 10 µM, first compound 0.0316 µM
# [22] = second compound 10 µM, first compound 0.1 µM
# [23] = second compound 10 µM, first compound 0.316 µM
# [24] = second compound 10 µM, first compound 1 µM
# [25] = second compound 0.0316 µM, first compound 0.00316 µM
# [26] = second compound 0.0316 µM, first compound 0.01 µM
# [27] = second compound 0.1 µM, first compound 0.00316 µM
# [28] = second compound 0.1 µM, first compound 0.01 µM
# [29] = second compound 0.316 µM, first compound 0.00316 µM
# [30] = second compound 0.316 µM, first compound 0.01 µM
# [31] = second compound 1 µM, first compound 0.00316 µM
# [32] = second compound 1 µM, first compound 0.01 µM
# [33] = second compound 3.16 µM, first compound 0.00316 µM
# [34] = second compound 3.16 µM, first compound 0.01 µM
# [35] = second compound 10 µM, first compound 0.00316 µM
# [36] = second compound 10 µM, first compound 0.01 µM
# 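Note: spheroids exposed to compounds for seven days before readout.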
# 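Throughout, for viability, T/C: percent of DMSO vehicle control luminescence as 100% viability.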
structure (smiles),measurement,setting,value
CC(Nc1ccc2c(c1)OCCn1cc(N3C(=O)OCC3C(F)F)nc1-2)C(N)=O (stereo unspecified) + CN1CCN(c2cc(C(=O)Nc3cc4cc(-c5cnn(C)c5)ccc4cn3)ccn2)CC1,pIC50,second compound 0.0316 µM,< 5.00
same,pIC50,second compound 0.1 µM,6.61
same,pIC50,second compound 0.316 µM,> 7.50
same,pIC50,second compound 1 µM,> 7.50
same,pIC50,second compound 3.16 µM,> 7.50
same,pIC50,second compound 10 µM,> 7.50
same,"viability, T/C",[1],108%
same,"viability, T/C",[2],81.5%
same,"viability, T/C",[3],70%
same,"viability, T/C",[4],77.8%
same,"viability, T/C","second compound 0.0316 µM, first compound 3.16 µM",63%
same,"viability, T/C","second compound 0.0316 µM, first compound 10 µM",66.1%
same,"viability, T/C",[5],72.6%
same,"viability, T/C",[6],60.6%
same,"viability, T/C",[7],47.2%
same,"viability, T/C",[8],45.7%
same,"viability, T/C","second compound 0.1 µM, first compound 3.16 µM",48.7%
same,"viability, T/C","second compound 0.1 µM, first compound 10 µM",44.8%
same,"viability, T/C",[9],7.83%
same,"viability, T/C",[10],6.06%
same,"viability, T/C",[11],6.08%
same,"viability, T/C",[12],6.51%
same,"viability, T/C","second compound 0.316 µM, first compound 3.16 µM",6.66%
same,"viability, T/C","second compound 0.316 µM, first compound 10 µM",5.69%
same,"viability, T/C",[13],3.5%
same,"viability, T/C",[14],1.22%
same,"viability, T/C",[15],1.34%
same,"viability, T/C",[16],1.35%
same,"viability, T/C","second compound 1 µM, first compound 3.16 µM",2.69%
same,"viability, T/C","second compound 1 µM, first compound 10 µM",2.57%
same,"viability, T/C",[17],5.8%
same,"viability, T/C",[18],3.43%
same,"viability, T/C",[19],2.3%
same,"viability, T/C",[20],2.9%
same,"viability, T/C","second compound 3.16 µM, first compound 3.16 µM",2.51%
same,"viability, T/C","second compound 3.16 µM, first compound 10 µM",2.34%
same,"viability, T/C",[21],2.26%
same,"viability, T/C",[22],2.36%
same,"viability, T/C",[23],2.91%
same,"viability, T/C",[24],1.47%
same,"viability, T/C","second compound 10 µM, first compound 3.16 µM",1.7%
same,"viability, T/C","second compound 10 µM, first compound 10 µM",3.3%
CCN1CCN(Cc2ccc(Nc3ncc(F)c(-c4cc(F)c5nc(C)n(C(C)C)c5c4)n3)nc2)CC1 + CN1CCN(c2cc(C(=O)Nc3cc4cc(-c5cnn(C)c5)ccc4cn3)ccn2)CC1,pIC50,second compound 0.0316 µM,< 6.00
same,pIC50,second compound 0.1 µM,< 6.00
same,pIC50,second compound 0.316 µM,> 8.50
same,pIC50,second compound 1 µM,> 8.50
same,pIC50,second compound 3.16 µM,> 8.50
same,pIC50,second compound 10 µM,> 8.50
same,"viability, T/C",[25],97.5%
same,"viability, T/C",[26],93.4%
same,"viability, T/C",[1],101%
same,"viability, T/C",[2],93.4%
same,"viability, T/C",[3],87.6%
same,"viability, T/C",[4],72.4%
same,"viability, T/C",[27],65.8%
same,"viability, T/C",[28],64.7%
same,"viability, T/C",[5],64.5%
same,"viability, T/C",[6],72.9%
same,"viability, T/C",[7],72.6%
same,"viability, T/C",[8],52%
same,"viability, T/C",[29],6.05%
same,"viability, T/C",[30],8.49%
same,"viability, T/C",[9],8.54%
same,"viability, T/C",[10],9.66%
same,"viability, T/C",[11],13%
same,"viability, T/C",[12],6.42%
same,"viability, T/C",[31],1.57%
same,"viability, T/C",[32],2.07%
same,"viability, T/C",[13],2.83%
same,"viability, T/C",[14],2.75%
same,"viability, T/C",[15],4.4%
same,"viability, T/C",[16],5.61%
same,"viability, T/C",[33],3.72%
same,"viability, T/C",[34],6.23%
same,"viability, T/C",[17],5.4%
same,"viability, T/C",[18],5.18%
same,"viability, T/C",[19],4.88%
same,"viability, T/C",[20],8.09%
same,"viability, T/C",[35],3.9%
same,"viability, T/C",[36],2.79%
same,"viability, T/C",[21],4.22%
same,"viability, T/C",[22],4.63%
same,"viability, T/C",[23],2.76%
same,"viability, T/C",[24],2.39%
COc1c(OCCCN2CCOCC2)ccc2c3n(c(=NC(=O)c4cnc(N)nc4)nc12)CCN3 + CN1CCN(c2cc(C(=O)Nc3cc4cc(-c5cnn(C)c5)ccc4cn3)ccn2)CC1,pIC50,second compound 0.0316 µM,6.71
same,pIC50,second compound 0.1 µM,7.60
same,pIC50,second compound 0.316 µM,> 8.50
same,pIC50,second compound 1 µM,> 8.50
same,pIC50,second compound 3.16 µM,> 8.50
same,pIC50,second compound 10 µM,> 8.50
same,"viability, T/C",[25],114%
same,"viability, T/C",[26],96.6%
same,"viability, T/C",[1],74.2%
same,"viability, T/C",[2],60.9%
same,"viability, T/C",[3],43.3%
same,"viability, T/C",[4],27.8%
same,"viability, T/C",[27],60.1%
same,"viability, T/C",[28],65%
same,"viability, T/C",[5],41%
same,"viability, T/C",[6],38.8%
same,"viability, T/C",[7],23.2%
same,"viability, T/C",[8],16.7%
same,"viability, T/C",[29],6.51%
same,"viability, T/C",[30],6.64%
same,"viability, T/C",[9],5.96%
same,"viability, T/C",[10],6.61%
same,"viability, T/C",[11],5.11%
same,"viability, T/C",[12],4.05%
same,"viability, T/C",[31],3.87%
same,"viability, T/C",[32],1.44%
same,"viability, T/C",[13],1.35%
same,"viability, T/C",[14],1.23%
same,"viability, T/C",[15],1.21%
same,"viability, T/C",[16],1.6%
same,"viability, T/C",[33],2.64%
same,"viability, T/C",[34],2.53%
same,"viability, T/C",[17],2.97%
same,"viability, T/C",[18],1.79%
same,"viability, T/C",[19],1.84%
same,"viability, T/C",[20],1.94%
same,"viability, T/C",[35],3.49%
same,"viability, T/C",[36],3.33%
same,"viability, T/C",[21],1.42%
same,"viability, T/C",[22],1.13%
same,"viability, T/C",[23],3.58%
same,"viability, T/C",[24],1.55%
